Test results taken from ChEMBL document CHEMBL1201862, “PubChem BioAssay data set” (2004).
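A five-concentration, 48-hour dose response in 96-well plates underlies each endpoint, interpolated linearly between surrounding concentrations. GI50: concentration for 50% inhibition of growth.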 Active and inactive are the calls of the source. Rule as the data show it: active = GI50 up to about 1.1 µM and inactive = higher.

Tests used:
Experiment in all cases: DTP human tumour cell line panel, 48 h
KM-20L2 = tested on: KM-20L2
DMS-114 = tested on: DMS-114
OVCAR-3 = tested on: OVCAR-3
HCT-116 = tested on: HCT-116
DLD-1 = tested on: DLD-1
SF-539 = tested on: SF-539
M19-MEL = tested on: M19-MEL
TK-10 = tested on: TK-10
OVCAR-8 = tested on: OVCAR-8
LOX IMVI = tested on: LOX IMVI
A498 = tested on: A498
OVCAR-4 = tested on: OVCAR-4
SF-295 = tested on: SF-295
CCRF-CEM = tested on: CCRF-CEM
A549 = tested on: A549
IGROV-1 = tested on: IGROV-1
M14 = tested on: M14
HCT-15 = tested on: HCT-15
COLO 205 = tested on: COLO 205
DMS-273 = tested on: DMS-273
SK-OV-3 = tested on: SK-OV-3
HOP-18 = tested on: HOP-18
MOLT-4 = tested on: MOLT-4
EKVX = tested on: EKVX
XF498 = tested on: XF498
SNB-19 = tested on: SNB-19
UACC-257 = tested on: UACC-257
CAKI-1 = tested on: CAKI-1
SK-MEL-5 = tested on: SK-MEL-5
UACC-62 = tested on: UACC-62
U-251 = tested on: U-251
HOP-92 = tested on: HOP-92
SNB-78 = tested on: SNB-78
SW-620 = tested on: SW-620
RXF 393 = tested on: RXF 393
786-0 = tested on: 786-0
SN12C = tested on: SN12C
LXFL 529 = tested on: LXFL 529
HL-60 = tested on: HL-60
HOP-62 = tested on: HOP-62
HCC 2998 = tested on: HCC 2998
NCI-H460 = tested on: NCI-H460
SK-MEL-28 = tested on: SK-MEL-28
RPMI-8226 = tested on: RPMI-8226
NCI-H23 = tested on: NCI-H23
SNB-75 = tested on: SNB-75
K562 = tested on: K562
ACHN = tested on: ACHN
HT-29 = tested on: HT-29
OVCAR-5 = tested on: OVCAR-5
SR = tested on: SR
NCI-H226 = tested on: NCI-H226
RXF 631 = tested on: RXF 631
UO-31 = tested on: UO-31
KM12 = tested on: KM12
SF-268 = tested on: SF-268

In the case of O=C(O)CCC1CCc2cccc(OCC(=O)O)c2C1=O (stereo not given), the GI50 (KM-20L2) is reported as > 100 µM (inactive), the GI50 (DMS-114) is reported as > 100 µM (inactive) and the GI50 (OVCAR-3) is reported as > 100 µM (inactive). For the same compound, the GI50 (HCT-116) was > 100 µM (inactive), the GI50 (DLD-1) was > 100 µM (inactive) and the GI50 (SF-539) was > 100 µM (inactive). The GI50 (M19-MEL) was > 100 µM (inactive), the GI50 (TK-10) was > 100 µM (inactive) and the GI50 (OVCAR-8) was > 100 µM (inactive). The GI50 (LOX IMVI) was > 100 µM (inactive), the GI50 (A498) was > 100 µM (inactive) and the GI50 (OVCAR-4) was > 100 µM (inactive). For the same compound, the GI50 (SF-295) was > 100 µM (inactive), the GI50 (CCRF-CEM) was > 100 µM (inactive) and the GI50 (A549) was > 100 µM (inactive). The GI50 (IGROV-1) was > 100 µM (inactive), the GI50 (M14) was > 100 µM (inactive) and the GI50 (HCT-15) was > 100 µM. For the same compound, the GI50 (COLO 205) was > 100 µM (inactive), the GI50 (DMS-273) was > 100 µM (inactive) and the GI50 (SK-OV-3) was > 100 µM (inactive). For the same compound, the GI50 (HOP-18) was > 100 µM (inactive), the GI50 (MOLT-4) was > 100 µM (inactive) and the GI50 (EKVX) was > 100 µM (inactive). The GI50 (XF498) was > 100 µM (inactive), the GI50 (SNB-19) was > 100 µM (inactive) and the GI50 (UACC-257) was > 100 µM (inactive). The GI50 (CAKI-1) was > 100 µM (inactive), the GI50 (SK-MEL-5) was > 100 µM (inactive) and the GI50 (UACC-62) was > 100 µM (inactive). The GI50 (U-251) was > 100 µM (inactive), the GI50 (HOP-92) was > 100 µM (inactive) and the GI50 (SNB-78) was > 100 µM (inactive). The GI50 (SW-620) was > 100 µM (inactive), the GI50 (RXF 393) was > 100 µM (inactive) and the GI50 (786-0) was > 100 µM (inactive). The GI50 (SN12C) was > 100 µM (inactive), the GI50 (LXFL 529) was > 100 µM (inactive) and the GI50 (HL-60) was > 100 µM (inactive). For the same compound, the GI50 (HOP-62) was > 100 µM (inactive), the GI50 (HCC 2998) was > 100 µM (inactive) and the GI50 (NCI-H460) was > 100 µM (inactive). The GI50 (SK-MEL-28) was > 100 µM (inactive), the GI50 (RPMI-8226) was > 100 µM (inactive) and the GI50 (NCI-H23) was > 100 µM (inactive). The GI50 (SNB-75) was > 100 µM (inactive), the GI50 (K562) was > 100 µM (inactive) and the GI50 (ACHN) was > 100 µM (inactive). For the same compound, the GI50 (HT-29) was > 100 µM (inactive).

In the case of O=C1C2c3[nH]c4ccccc4c3[C@@H]3CCCCCCCCCCC3C2C(=O)N1c1ccccc1 (stereo not given in full), the GI50 (DMS-114) is reported as 16.9 µM (inactive), the GI50 (OVCAR-3) is reported as 16 µM (inactive) and the GI50 (OVCAR-5) is reported as > 100 µM (inactive). For the same compound, the GI50 (SR) was 12.8 µM (inactive), the GI50 (DLD-1) was 24.5 µM (inactive) and the GI50 (SF-539) was 10.1 µM (inactive). The GI50 (M19-MEL) was 22.2 µM (inactive), the GI50 (TK-10) was 20 µM (inactive) and the GI50 (OVCAR-8) was 18.1 µM (inactive). For the same compound, the GI50 (LOX IMVI) was 16.1 µM (inactive), the GI50 (OVCAR-4) was 17.6 µM (inactive) and the GI50 (NCI-H226) was 33.5 µM (inactive). For the same compound, the GI50 (RXF 631) was 12.6 µM (inactive), the GI50 (SF-295) was 16.3 µM (inactive) and the GI50 (A549) was 21.8 µM (inactive). The GI50 (IGROV-1) was 18.7 µM (inactive), the GI50 (M14) was 15.3 µM (inactive) and the GI50 (HCT-15) was 38.6 µM. For the same compound, the GI50 (COLO 205) was 23 µM (inactive), the GI50 (DMS-273) was 27.3 µM (inactive) and the GI50 (SK-OV-3) was 10.4 µM (inactive). For the same compound, the GI50 (UO-31) was 32.9 µM (inactive), the GI50 (HOP-18) was 41.5 µM (inactive) and the GI50 (EKVX) was 55.1 µM (inactive). The GI50 (KM12) was 18.2 µM (inactive), the GI50 (SNB-19) was 12.4 µM (inactive) and the GI50 (SK-MEL-5) was 78 µM (inactive). For the same compound, the GI50 (UACC-62) was 20.1 µM (inactive), the GI50 (U-251) was 18.2 µM (inactive) and the GI50 (SF-268) was 13.6 µM (inactive). The GI50 (SNB-78) was 8.53 µM (inactive), the GI50 (SW-620) was 15.2 µM (inactive) and the GI50 (RXF 393) was 14.8 µM (inactive). The GI50 (786-0) was 16.1 µM (inactive), the GI50 (SN12C) was 18.6 µM (inactive) and the GI50 (LXFL 529) was 13.5 µM (inactive). The GI50 (HL-60) was 12.1 µM (inactive), the GI50 (HCC 2998) was 27.5 µM (inactive) and the GI50 (NCI-H460) was 17.3 µM (inactive). The GI50 (SK-MEL-28) was 23.2 µM (inactive), the GI50 (RPMI-8226) was 38.6 µM (inactive) and the GI50 (NCI-H23) was 17.5 µM (inactive). For the same compound, the GI50 (SNB-75) was 3.18 µM (inactive), the GI50 (K562) was 8.67 µM (inactive) and the GI50 (ACHN) was 25.9 µM (inactive). For the same compound, the GI50 (HT-29) was 27.6 µM (inactive).
